Experimental data: US11059845B2, “Immune stimulating macrolides” (ISR IMMUNE SYSTEM REGULATION HOLDING AB (PUBL), priority 2017, dated 2021)

Legend:
C57bl/6 mice = test: MHC class I expression on CD11b+ splenocytes of mice after i.v. injection; format: in vivo, mouse; conditions: spleen 24 h later
Method: FIG. 15: % MHC class I high CD11b+ cells in spleen of 3 individual C57bl/6 mice injected 24 h previously with indicated compound. MHC class I and CD11 b expression was measured by flow cytometry.
Study 14: Compound 1 or A was administered i.v. to C57bl/6 mice.

PBMCs [1] = test: Supernatant IL-10 sandwich ELISA; format: cell-based, human; conditions: 100 U/mL IL-2, 48 h and 7 days
Method: Supernatant IL-10 was measured with a standard sandwich ELISA (all antibodies from BD Biosciences) after 48 hours and 7 days incubation with 2.5 μM of compound 1 and 100 U/mL IL-2 (Miltenyi Biotechnologies) in complete RPMI media, 37° C., 5% CO2
Supernatant IL-10 was measured with a standard sandwich ELISA (all antibodies from BD Biosciences) after 48 hours and 7 days incubation with 2.5 uM of compound 1 and 100 U/mL IL-2 (Miltenyi Biotechnologies) in complete RPMI media, 37° C., 5% CO2.

Micrococcus luteus = test: Minimum Inhibitory Concentration (MIC) assay; format: cell-based; conditions: aerobic, 37° C., 18 h
Method: (§1) The bioactivity of macrolide compounds against 4 strains of common gut bacteria (Escherichia coli, Streptococcus salivarius subsp. salivarius, Lactobacillus casei and Bifidobacterium longum subsp. infantis) and common mammalian skin isolate Micrococcus luteus, was assessed using the Minimum Inhibitory Concentration (MIC) assay. Bacterial strains were purchased from DSMZ (Brunswick, Germany) except M. luteus which was obtained from NCIMB, and stored in 20% glycerol at −80° C. Stock solutions (100% DMSO) of positive controls (azithromycin and erythromycin), and of test compounds 1 and 2 were diluted in broth to working stock concentrations of 256 μg/ml (final assay testing concentration range 128 μg/ml to 0.00391 μg/ml). Stock solutions of all other compounds were diluted in broth to working stock concentrations of 128 μg/ml (final assay testing concentration range 64 μg/ml to 0.00195 μg/ml). Bacterial strains were cultivated in appropriate broth in an anaerobic chamber at 37° C., except for M. luteus which was incubated aerobically at 37° C. 18 h cultures were diluted in broth to an OD595 of 0.1 and then further diluted 1:10. In 96-well plates, in duplicate, 200 μl working stock of test compound was transferred to well 1 and serially diluted (1:2) in broth. 100 μl bacterial suspension was aliquoted into each well and mixed thoroughly. Appropriate sterility controls were included and plates were incubated in an anaerobic chamber, or aerobically (M. luteus) at 37° C. for 18 h. The MIC was determined to be the concentration of test compound in the first well with no visible growth.

Escherichia coli = test: Minimum Inhibitory Concentration (MIC) assay; format: cell-based; conditions: anaerobic, 37° C., 18 h
Method: as §1

[2] = system: Streptococcus salivarius subsp. salivarius; test: Minimum Inhibitory Concentration (MIC) assay; format: cell-based; conditions: anaerobic, 37° C., 18 h
Method: as §1

Lactobacillus casei = test: Minimum Inhibitory Concentration (MIC) assay; format: cell-based; conditions: Lacticaseibacillus casei; anaerobic, 37° C., 18 h
Method: as §1

[3] = system: Bifidobacterium longum subsp. infantis; test: Minimum Inhibitory Concentration (MIC) assay; format: cell-based; conditions: anaerobic, 37° C., 18 h
Method: as §1

[4] = system: PBMCs from CMV infected donors; test: IFN-gamma secretion from PBMCs of CMV infected donors with CMV antigen (cytometric bead assay); format: cell-based, human; conditions: 3 days
Text: FIG. 9: Interferon-gamma secretion (as measured by cytometric bead assay) from PBMCs (from a CMV+ donor) grown with CMV peptides in the presence or absence of compound 1 or A for […].
Study 8: PBMCs from CMV infected donors cultured in the presence of CMV antigen where either untreated or exposed to compound 1 or compound 2 for 3 days.

T cells in PBMC = test: T cell proliferation with IL-2, Cell Trace Violet, flow cytometry; format: cell-based, human; conditions: 6 days, in the presence of IL-2
Method: FIG. 7. CD4 T cell proliferation after 6 days stimulation with compound 1, measured with proliferation dye Celltrace violet (Invitrogen) and flow cytometry. Untreated cells (UNT) or compound A were used as controls.
Study 6: PBMC were stimulated with compound 1 and cultured in RPMI media for 6 days in the presence of IL-2 (Miltenyi Biotechnologies) and Cell Trace Violet Dye (Invitrogen). Proliferation was measured with flow cytometry.

PBMCs [5] = test: Cytokine/chemokine secretion from PBMCs (cytometric bead assay); format: cell-based, human; conditions: 2 days
Method: (§2) FIG. 11: Chemokine RANTES secretion (as measured by cytometric bead assay) from PBMC or macrophages stimulated with indicated compound for 48 h.
(§3) FIG. 12: IL12p70 secretion (as measured by cytometric bead assay) from PBMC or macrophages stimulated with indicated compound for 48 h.
(§4) FIG. 13: IL1b secretion (as measured by cytometric bead assay) from PBMC, macrophages or CD4 T cells stimulated with indicated compound for 48 h.
(§5) Study 10: PBMCs and macrophages where exposed to compounds 1 or 2 for 2 days (FIG. 11).
(§6) Study 11: PBMCs and macrophages where exposed to compounds 1 and 2 for 2 days.
(§7) Study 12: PBMCs, macrophages and CD4+ T cells where exposed to compounds 1 and 2 for 2 days.

[6] = system: Monocytes differentiated into macrophages; test: CD80 expression on monocytes differentiated into macrophages; format: cell-based, human; conditions: 24 h
Method: Human peripheral blood mononuclear cells (PBMCs) were purified from healthy donors with Ficoll-Paque density centrifugation. Cells were cultured in complete RPMI-1640 medium (Invitrogen) supplemented with 25 mM HEPES, L-glutamine, Sodium pyruvate (Sigma), 10% fetal bovine serum, 100 μg/mL penicillin and 100 μg/mL streptomycin (Hyclone). Cells were stimulated for 24 h (study 1-4) or 48 h to 1 week (study 5) in 37° C., 5% CO2 with increasing concentrations of compound 1 and 2 in tissue culture plates. The cells were removed from the plate, washed in PBS and analysed for expression of cell specific surface markers and MHC class I with flow cytometry using monoclonal antibodies from BD Pharmingen and a FACS Canto II flow cytometer.

[7] = system: Macrophages from healthy donors; test: Cytokine/chemokine secretion from macrophages (cytometric bead assay); format: cell-based, human
Method: FIG. 10: Interferon-gamma secretion (as measured by cytometric bead assay) from macrophages stimulated with indicated compound for 48 h.
as §2, §3, §4
Study 9: Macrophages from healthy donors where exposed to compounds 1 or 2 for 48 hours. […] Compound 1 is therefore able to induce IFN-gamma secretion in macrophages from healthy donors.
as §5, §6, §7

CD4+ T cells = test: IL-1beta secretion from CD4+ T cells (cytometric bead assay); format: cell-based, human; conditions: 2 days
Method: as §4, §7

## CC[C@H]1OC(=O)[C@H](C)[C@@H](O[C@H]2C[C@@H](N(C)C)[C@H](O)[C@@H](C)O2)[C@H](C)[C@@H](O)[C@](C)(O)C[C@@H](C)CN(C)[C@H](C)[C@@H](O)[C@]1(C)O [Compound 1]
C57bl/6 mice
  splenocyte cells (CD11b+) with high MHC I expression: induced an increase
PBMCs [1]
  production of IL-10: increased production
Micrococcus luteus
  MIC: > 256 µg/mL
Escherichia coli
  MIC: > 64 µg/mL
[2]
  MIC: > 64 µg/mL
Lactobacillus casei
  MIC: > 64 µg/mL
[3]
  MIC: > 64 µg/mL
[4]
  IFN-gamma secretion, PBMCs with CMV antigen: induced secretion of high levels of IFN-gamma
T cells in PBMC
  cytokine driven proliferation profile of T cells: altered cytokine driven proliferation profile
PBMCs [5]
  IL-1beta secretion, PBMCs: slightly
  IL-12p70 secretion, PBMCs: secreted IL-12p70
  expression of RANTES in PBMCs: twofold upregulation
[6]
  CD80 on macrophages: upregulated
[7]; 2 days
  IL-1beta secretion, macrophages: increased
  IL-12p70 secretion, macrophages: secreted IL-12p70
  expression of RANTES in macrophages: induced a high expression
[7]; 48 hours
  IFN-gamma secretion, macrophages: secreted IFN-gamma
CD4+ T cells
  IL-1beta secretion, CD4+ T cells: no IL-1beta was induced
